Patent publication US20150044211A1, “COMBINATION OF A 6-OXO-1,6-DIHYDRO-PYRIDAZINE DERIVATIVE HAVING ANTI-CANCER ACTIVITY WITH OTHER ANTI-TUMOR COMPOUNDS” (MERCK PATENT GMBH, priority 2012, published 2015)

Key:
[1] = tested on: human NCI-H441 NSCLC tumor cells; settings: female CD-1 nude mice; for T/C: end of treatment (18 days), compound 100 mg/kg orally 5 days on 2 days off, erlotinib 40 then 30 mg/kg (MTD)
Experimental: (§1) Method: Female CD-1 nude mice (6-8 week old) where subcutaneously injected with human NCI-H441 NSCLC tumor cells and were divided into 4 groups (ten animals in one group) after the tumors were established. Respective groups were administered orally with the 3-(1-{3-[5-(1-Methyl-piperidin-4-ylmethoxy)-pyrimidin-2-yl]-benzyl}-6-oxo-1,6-dihydro-pyridazin-3-yl)-benzonitrile hydrochloride hydrate (100 mg/kg—5 days on and 2 days off) or with erlotinib (initial 40 mg/kg followed by 30 mg/kg (MTD)-4 days on and 4 days off followed by 3 days on and 4 days off) alone or both drugs simultaneously for 18 days. […] Statistical calculation has been done at day 7, the day with most body weight difference in erlotinib monotherapy versus combination groups.

[2] = Body weight change / tolerability in the NCI-H441 xenograft study; settings: Day 7
Experimental: as §1

[3] = tested on: luciferase-transfected human EBC-1 NSCLC tumor cells; assay: EBC-1 NSCLC xenograft (luciferase-transfected), combination with B20.4-1; format: in vivo
From the text: Formation of lung metastases was reduced and could be only detected at the end of treatment in 3/10 mice. B20.4-1 was active with a T/C of 19% and lung metastases in 4/10 mice could be detected at the end of treatment. […] Detectable formation of lung metastases could be suppressed in 10/10 mice.

[4] = tested on: human H1975 NSCLC tumor cells; assay: H1975 NSCLC xenograft, combination with cetuximab; format: in vivo; settings: single agent 100 mg/kg orally daily for three weeks; CD-1 nude mice
From the text: Method: Female CD-1 nude mice (6-8 week old) where subcutaneously injected with human H1975 NSCLC tumor cells and were divided into 4 groups (nine animals in one group) after the tumors were established.

Compound | T/C [1] | Dunn's Multiple Comparison Test, Difference in rank sum (body weight change %) ([2]; versus Vehicle) | Dunn's Multiple Comparison Test, Significant? P < 0.05? (body weight change %) ([2]; versus Vehicle) | Dunn's Multiple Comparison Test, Summary (body weight change %) ([2]; versus Vehicle) | partial regression ([3]; SCID hairless mice, 20 days of treatment) | lung metastases detected at the end of treatment ([3]; SCID hairless mice, 20 days, ex vivo lung images) | T/C ([3]; end of treatment (20 days), female SCID hairless mice, compound 10 mg/kg orally daily, B20.4-1 20 mg/kg intraperitoneally biweekly) | tumor growth delay (TGD) ([1]; compound 100 mg/kg, erlotinib 40 then 30 mg/kg, 18 days) | anti-tumor activity (in words) [4] | Dunn's Multiple Comparison Test, Difference in rank sum (body weight change %) ([2]; versus erlotinib 30 mg/kg) | Dunn's Multiple Comparison Test, Significant? P < 0.05? (body weight change %) ([2]; versus erlotinib 30 mg/kg) | Dunn's Multiple Comparison Test, Summary (body weight change %) ([2]; versus erlotinib 30 mg/kg)
C#Cc1cccc(Nc2ncnc3cc(OCCOC)c(OCCOC)cc23)c1 [erlotinib, reference compound] | 82% | 6.333 | no | ns |  |  |  |  |  |  |  | 
CN1CCC(COc2cnc(-c3cccc(Cn4nc(-c5cccc(C#N)c5)ccc4=O)c3)nc2)CC1.Cl.O [“A”, 3-(1-{3-[5-(1-Methyl-piperidin-4-ylmethoxy)-pyrimidin-2-yl]-benzyl}-6-oxo-1,6-dihydro-pyridazin-3-yl)-benzonitrile hydrochloride hydrate] | 20% | 2.000 | no | ns | 1/10 | 3/10 | −20% | 16 days | inactive | −4.333 | no | ns
